“And” between values parts separate entries of the source, which are not always exact repeats. Identical values can stand only once. Like-named read-outs stand apart in the source and are kept apart here.
What was measured:
GPR40 (FFAR1) = GPR40 (FFAR1) (Homo sapiens, UniProt O14842); experiment: PathHunter β-arrestin assay (Eurofins Discovery), GPR40; assay type: cell-based; conditions: for EC50 / GPR40 max. efficacy: dose-response; for EC50: β-arrestin assay, read-out: GPR40 EC50 measured; for GPR40 max. efficacy: oleic acid = 100
Protocol: (§1) With these compounds in hand, attention was directed at evaluating their properties as ligands to GPR40, GPR120,[24] and TLX. Initial profiling experiments were conducted targeting the GPCR targets at a single concentration (15 μM) in a commercially available β-arrestin assay.
(§2) Functional assays at GPR40 and GPR120 were conducted by Eurofins Discovery services using their PathHunter® b-Arrestin assay that monitors the activation of a GPCR in a homogenous, non-imaging assay format using a technology developed by DiscoverX called Enzyme Fragment Complementation (EFC) with b-galactosidase (b-Gal) as the functional reporter. b-Arrestin GPCR cell lines built on the principles of EFC are engineered to co-express the ProLinkTM (PK) tagged GPCR and the Enzyme Acceptor (EA) tagged b-Arrestin. Activation of the GPCR-PK induces b-Arrestin-EA recruitment, forcing complementation of the two b-galactosidase enzyme fragments (EA and PK). The resulting functional enzyme hydrolyzes substrate to generate chemiluminescent […]
(§3) Additional information can be found at: www.eurofinsdiscovery.com/solution/b-arrestin Below are dose-response curves generated from Eurofins Discovery services for activity of ligands depicted in Figure 6B at GPR40 (FFAR1) and GPR120. […]

GPR120 = biological target: T1, GPR120 (Homo sapiens, UniProt Q5NUL3); experiment: PathHunter β-arrestin assay (Eurofins Discovery), GPR120; assay type: cell-based; conditions: for EC50: dose-response, β-arrestin assay, read-out: GPR120 EC50 measured; for GPR120 max. efficacy: maximal efficacy measured at 100 μM, oleic acid = 100
T1 sequence (Q5NUL3 1-361): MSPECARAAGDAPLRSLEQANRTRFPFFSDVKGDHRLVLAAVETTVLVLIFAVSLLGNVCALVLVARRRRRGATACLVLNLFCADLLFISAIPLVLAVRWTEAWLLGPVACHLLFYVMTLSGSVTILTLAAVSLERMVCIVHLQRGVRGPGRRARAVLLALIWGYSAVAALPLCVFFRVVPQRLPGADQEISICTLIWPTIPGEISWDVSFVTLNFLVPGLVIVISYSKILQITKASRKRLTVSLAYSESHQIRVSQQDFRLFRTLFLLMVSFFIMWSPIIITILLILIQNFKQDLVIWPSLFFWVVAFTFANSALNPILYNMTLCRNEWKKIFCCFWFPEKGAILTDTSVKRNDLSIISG
Protocol: as §1, §2, §3

[1] = biological target: T2, TLX ligand binding domain (Homo sapiens, UniProt Q9Y466); experiment: TLX ligand sensing assay (AlphaScreen, RIP140 NR box peptide recruitment); assay type: biochemical; conditions: for TLX max. efficacy: oleic acid = 100
T2 construct: purchased NovAliX SAS, Strasbourg, France

[2] = Metabolic stability / intrinsic clearance in cryopreserved human hepatocytes; conditions: for Half-life, single replicates (1st, 2nd, 3rd) / half-life at 1 µM: human hepatocytes; for Half-life, single replicates (1st, 2nd, 3rd) / half-life at 1 µM / % Compound Remaining, mean / % Compound Remaining, single replicates (1st, 2nd, 3rd): 1.0E-06 M; for hepatocyte CLint at 1 µM / half-life at 1 µM: human
Protocol: To gain insight into potential metabolic issues, a preliminary assessment of 1-E and 3-C in a metabolic stability assay utilizing human hepatocytes was conducted.
7.1. ADME-Tox: In Vitro Metabolism
Intrinsic clearance (cr yopreserved hepatocytes, human)
Note: Unit of Clint is µ L/min/mg for microsomes, S9 and UGT assa ys; µL/min/pmol for CYP assays; µ L/min/Million cells for hepatocyte assays […]
8.1. Experimental Conditions
8.1.1. ADME-Tox: In Vitro Metabolism
8.2. Analysis and expression of results
8.2.1. ADME-Tox: In Vitro Metabolism
Intrinsic Clearance (microsomes, S9, cryopreserved hepatocytes, reco mbinant CYP, recombinant UGT) Metabolic stability, expressed as percent of the parent compound remaining , was calculated by comparing the peak area of the compound at the time point relative to that at time -0. The ha lf-life (T1/2) was estimated from the slope of the initial linear range of the logarithmic curve of compound remaining (%) vs. time, assu ming the first -order kinetics. The apparent intrinsic cleara nce (CLint, in µL/min/pmol, µL/min/mg or µL/min/Mcell ) was calculated according to the following formula: […]
T1/2*(mg protein/µL or million cells/µL or pmol CYP iso zyme/µL)

[3] = ALPHA normalized, supplement, read-out: TLX EC50 (dose-response curves)
[4] = cryopreserved human hepatocytes
[5] = cryopreserved human hepatocytes, Half-life (mean)
[6] = coactivator recruitment, read-out: TLX EC50

T2 sequence (Q9Y466 155-383 limits assumed): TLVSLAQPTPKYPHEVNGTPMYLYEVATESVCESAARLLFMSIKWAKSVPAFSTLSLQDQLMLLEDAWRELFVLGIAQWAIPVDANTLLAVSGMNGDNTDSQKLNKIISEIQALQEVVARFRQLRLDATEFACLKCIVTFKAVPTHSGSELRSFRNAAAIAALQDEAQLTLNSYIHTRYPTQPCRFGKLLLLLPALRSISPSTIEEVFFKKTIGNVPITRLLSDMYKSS
Chain of GPR40 (FFAR1) (O14842 whole entry): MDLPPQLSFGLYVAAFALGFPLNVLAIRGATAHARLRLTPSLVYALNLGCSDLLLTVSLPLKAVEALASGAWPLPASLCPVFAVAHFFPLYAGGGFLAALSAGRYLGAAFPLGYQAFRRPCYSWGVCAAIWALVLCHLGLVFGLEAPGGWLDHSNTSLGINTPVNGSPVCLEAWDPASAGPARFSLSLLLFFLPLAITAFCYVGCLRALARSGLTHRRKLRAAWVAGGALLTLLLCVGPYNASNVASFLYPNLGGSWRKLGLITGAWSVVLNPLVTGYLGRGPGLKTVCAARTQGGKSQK

For `CCCCCCCCC[C@@H](C)/C=C(/C)C/C(C)=C/[C@H](C)CC(=O)O` [1-C], the EC50 (GPR40 (FFAR1)) was 7800 nM, the GPR40 max. efficacy (GPR40 (FFAR1)) was 109% and the EC50 (GPR120) was over 51000 nM. The GPR120 max. efficacy (GPR120) was 29% and the EC50 [1, 3] was 3120 nM.

`CCCCCCCC/C=C(/C)C/C(C)=C/[C@H](C)CCCC(=O)O` [2-A] gave an EC50 [1, 3] of 2510 nM.

For `CCCCCCCCC[C@H](C)/C=C(/C)C/C(C)=C/[C@H](C)CC(=O)O` [1-E], the “GPR40 potency relative to oleic acid” value (GPR40 (FFAR1); EC50 ratio vs control oleic acid) was 14 times, the EC50 (GPR40 (FFAR1)) was 2600 nM and the GPR40 max. efficacy (GPR40 (FFAR1)) was 75%. The EC50 (GPR120) was over 47000 nM, the GPR120 max. efficacy (GPR120) was 32% and the EC50 [1, 3] was 1680 nM. The “Half-life, single replicates (1st, 2nd, 3rd)” value (from here on “Half-life, single replicates”) ([2]; listed as GCM/LEM 1-E) was 3.445 h and 2.168 h and 4.453 h, the hepatocyte CLint at 1 µM [2, 4] was 5.4 µL/min/1e6 cells and the half-life at 1 µM [2, 5] was 3.35 h. The “% Compound Remaining, mean” value ([2]; incubation 30 minutes) was 96 % remaining, the “% Compound Remaining, single replicates (1st, 2nd, 3rd)” value (“% Compound Remaining … (1st, 2nd, 3rd)” for short) ([2]; incubation 30 minutes, listed as GCM/LEM 1-E) was 99.4 % remaining and 103.0 % remaining and 86.6 % remaining and the “% Compound Remaining, mean” value ([2]; incubation 60 minutes) was 98 % remaining. For the same compound, the “% Compound Remaining … (1st, 2nd, 3rd)” value ([2]; incubation 60 minutes, listed as GCM/LEM 1-E) was 83.9 % remaining and 103.8 % remaining and 106.9 % remaining, the “% Compound Remaining, mean” value ([2]; incubation 90 minutes) was 85 % remaining and the “% Compound Remaining … (1st, 2nd, 3rd)” value ([2]; incubation 90 minutes, listed as GCM/LEM 1-E) was 79.1 % remaining and 80.4 % remaining and 96.1 % remaining. The “% Compound Remaining, mean” value ([2]; incubation 120 minutes) was 61 % remaining and the “% Compound Remaining … (1st, 2nd, 3rd)” value ([2]; incubation 120 minutes, listed as GCM/LEM 1-E) was 67.8 % remaining and 50.9 % remaining and 64.3 % remaining.

In the case of `CCCCCCC[C@H](C)/C=C(/C)C/C(C)=C/[C@@H](C)CCCC(=O)O` [2-F], the EC50 [1, 3] is reported as 1560 nM.

Compound `CCC[C@H](C)/C=C(/C)C/C(C)=C/[C@H](C)CCCCCCCC(=O)O` [4-E] has an EC50 [1, 3] of 1320 nM.

With `CCCCCC/C=C(/C)C/C(C)=C/[C@H](C)CCCCCC(=O)O` [3-A] the EC50 [1, 3] was 1560 nM.

For `CCC[C@H](C)/C=C(/C)C/C(C)=C/[C@@H](C)CCCCCCCC(=O)O` [4-F], the EC50 [1, 3] was 1890 nM.

With `CCCC/C=C(/C)C/C(C)=C/[C@@H](C)CCCCCCCC(=O)O` [4-B] the EC50 [1, 3] was 2970 nM.

In the case of `CCCCC[C@H](C)/C=C(/C)C/C(C)=C/[C@@H](C)CCCCCC(=O)O` [3-F], the EC50 [1, 3] is reported as 892 nM, the EC50 [1, 6] is reported as 900 nM and the TLX max. efficacy [1] is reported as 71%.

For `CCCC/C=C(/C)C/C(C)=C/[C@H](C)CCCCCCCC(=O)O` [4-A], the EC50 [1, 3] was 1520 nM.

`CCCCCCCCC[C@@H](C)/C=C(/C)C/C(C)=C/[C@@H](C)CC(=O)O` [1-D] showed an EC50 [1, 3] of 3170 nM.

With `CCC[C@@H](C)/C=C(/C)C/C(C)=C/[C@@H](C)CCCCCCCC(=O)O` [4-D] the EC50 [1, 3] was 1570 nM.

`CCCCC[C@H](C)/C=C(/C)C/C(C)=C/[C@H](C)CCCCCC(=O)O` [3-E] gave an EC50 [1, 3] of 959 nM.

Work on `CCCCC[C@@H](C)/C=C(/C)C/C(C)=C/[C@H](C)CCCCCC(=O)O` [3-C] yielded an EC50 [1, 3] of 818 nM, an EC50 [1, 6] of 800 nM and a TLX max. efficacy [1] of 66%. The “Half-life, single replicates” value ([2]; listed as GCM/LEM 3-C) was 1.862 h and 1.848 h, the hepatocyte CLint at 1 µM [2, 4] was 8.7 µL/min/1e6 cells and the half-life at 1 µM [2, 5] was 1.9 h. For the same compound, the half-life at 1 µM ([2]; cryopreserved human hepatocytes, Half-life, single replicates (1st, 2nd, 3rd)) was 1.97 h, the “% Compound Remaining, mean” value ([2]; incubation 30 minutes) was 96 % remaining and the “% Compound Remaining … (1st, 2nd, 3rd)” value ([2]; incubation 30 minutes, listed as GCM/LEM 3-C) was 97.3 % remaining and 95.1 % remaining and 96.7 % remaining. The “% Compound Remaining, mean” value ([2]; incubation 60 minutes) was 75 % remaining, the “% Compound Remaining … (1st, 2nd, 3rd)” value ([2]; incubation 60 minutes, listed as GCM/LEM 3-C) was 72.5 % remaining and 71.7 % remaining and 79.8 % remaining and the “% Compound Remaining, mean” value ([2]; incubation 90 minutes) was 57 % remaining. The “% Compound Remaining … (1st, 2nd, 3rd)” value ([2]; incubation 90 minutes, listed as GCM/LEM 3-C) was 59.1 % remaining and 54.4 % remaining and 53.2 % remaining, the “% Compound Remaining, mean” value ([2]; incubation 120 minutes) was 51 % remaining and the “% Compound Remaining … (1st, 2nd, 3rd)” value ([2]; incubation 120 minutes, listed as GCM/LEM 3-C) was 53.3 % remaining and 52.1 % remaining and 48.9 % remaining.

With `CCN(CC)CCN1C(=O)CN=C(c2ccccc2F)c2cc(Cl)ccc21` [Flurazepam, reference compound] the “Half-life, single replicates” value [2] was 0.797 h and 0.895 h, the hepatocyte CLint at 1 µM ([2]; hepatocytes) was 19.3 µL/min/1e6 cells and the half-life at 1 µM ([2]; hepatocytes, Half-life (mean)) was 0.85 h. It also gave a half-life at 1 µM ([2]; hepatocytes, Half-life, single replicates (1st, 2nd, 3rd)) of 0.882 h.
